Experimental data from ChEMBL document CHEMBL5726250, “AMPK-activating heterocyclic compounds and methods for using the same” (2017).

Molecular target: 5'-AMP-activated protein kinase catalytic subunit alpha-2 (Homo sapiens, UniProt P54646)
Assay: Enzyme-Linked Immunosorbent Assay: Compounds were assayed for their ability to activate AMPK using an enzyme-linked immunosorbent assay. Reagents and procedures for measuring AMPK activation are well known and kits for AMPK activation assays are commercially available.

Chain of 5'-AMP-activated protein kinase catalytic subunit alpha-2 (P54646 whole entry): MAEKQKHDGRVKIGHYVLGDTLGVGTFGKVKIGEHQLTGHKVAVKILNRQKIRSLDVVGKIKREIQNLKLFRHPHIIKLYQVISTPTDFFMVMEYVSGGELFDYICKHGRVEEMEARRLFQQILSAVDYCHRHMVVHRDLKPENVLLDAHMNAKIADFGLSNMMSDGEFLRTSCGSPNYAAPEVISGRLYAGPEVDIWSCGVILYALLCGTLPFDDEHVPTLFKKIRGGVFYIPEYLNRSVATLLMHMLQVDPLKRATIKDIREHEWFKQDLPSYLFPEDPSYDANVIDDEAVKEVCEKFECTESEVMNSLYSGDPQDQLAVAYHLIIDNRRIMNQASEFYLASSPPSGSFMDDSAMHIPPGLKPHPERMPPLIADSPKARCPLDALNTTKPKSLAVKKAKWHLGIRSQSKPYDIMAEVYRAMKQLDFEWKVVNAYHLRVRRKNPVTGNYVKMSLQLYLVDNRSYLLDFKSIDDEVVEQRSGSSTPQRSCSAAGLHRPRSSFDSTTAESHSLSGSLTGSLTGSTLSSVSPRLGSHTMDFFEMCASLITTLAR

O=C(Nc1ccc(-c2ccc([N+](=O)[O-])cc2)cc1)c1ccc(C(=O)N2CCN(Cc3ccc(F)cc3)CC2)cn1
EC50: > 10 µM

O=C(Nc1ccccc1-c1ccccc1)c1ccc(C(=O)N2CCN(Cc3ccc(F)cc3)CC2)cn1
EC50: > 10 µM
